“And” between values parts separate entries of the source, which are not always exact repeats. Equal entries are not always repeated. Inconclusive results and toxic doses are left out. How the source made its calls: active means survival T/C of 150% or more; inactive means T/C below 125% in these data.
Tested on: P388 leukemia ip, CD2F1 mice, survival T/C
Experiment: NCI In Vivo Anticancer Drug Screen. Data for tumor model P388 Leukemia (intraperitoneal) in CD2F1 (CDF1) mice
Settings: endpoint: median survival time, higher = longer survival
Summary of the method: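 Mice carrying the transplanted tumor received test compound or vehicle. Survival was recorded in each group, and the value is the treated-group measurement divided by that of the vehicle-treated control group.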

[1] = dose: 50.0 mg/kg/injection, schedule: Q01DX005 (ip), vehicle: saline with Tween-80
[2] = dose: 100.0 mg/kg/injection, schedule: Q01DX005 (ip), vehicle: saline with Tween-80
[3] = dose: 200.0 mg/kg/injection, schedule: Q01DX005 (ip), vehicle: saline with Tween-80
[4] = dose: 50.0 mg/kg/injection, schedule: Q01DX009 (ip), vehicle: Klucel (hydroxypropylcellulose) (HPC)
[5] = dose: 100.0 mg/kg/injection, schedule: Q01DX009 (ip), vehicle: Klucel (hydroxypropylcellulose) (HPC)
[6] = dose: 200.0 mg/kg/injection, schedule: Q01DX009 (ip), vehicle: Klucel (hydroxypropylcellulose) (HPC)
[7] = dose: 50.0 mg/kg/injection, schedule: Q01DX005 (ip), vehicle: Klucel (hydroxypropylcellulose) (HPC)
[8] = dose: 100.0 mg/kg/injection, schedule: Q01DX005 (ip), vehicle: Klucel (hydroxypropylcellulose) (HPC)
[9] = dose: 200.0 mg/kg/injection, schedule: Q01DX005 (ip), vehicle: Klucel (hydroxypropylcellulose) (HPC)

Measured: T/C

CCc1nc(N)nc(N)c1-c1ccc(Cl)c(N)c1
inactive: dose: 3.12 mg/kg/injection, schedule: Q01DX009 (ip), vehicle: distilled water + Tween-80 101 % of control | dose: 6.25 mg/kg/injection, schedule: Q01DX009 (ip), vehicle: distilled water + Tween-80 111 % of control | dose: 12.5 mg/kg/injection, schedule: Q01DX009 (ip), vehicle: distilled water + Tween-80 110 % of control | dose: 25.0 mg/kg/injection, schedule: Q01DX009 (ip), vehicle: distilled water + Tween-80 100 % of control | dose: 50.0 mg/kg/injection, schedule: Q01DX009 (ip), vehicle: distilled water + Tween-80 100 % of control and 111 % of control | dose: 100.0 mg/kg/injection, schedule: Q01DX009 (ip), vehicle: distilled water + Tween-80 105 % of control | dose: 200.0 mg/kg/injection, schedule: Q01DX009 (ip), vehicle: distilled water + Tween-80 101 % of control | dose: 400.0 mg/kg/injection, schedule: Q01DX009 (ip), vehicle: distilled water + Tween-80 118 % of control

CCOC(=O)NC(NC(=O)OCC)c1ccc(Cl)cc1
inactive: dose: 100.0 mg/kg/injection, schedule: Q04DX003 (ip), vehicle: saline 99 % of control | dose: 200.0 mg/kg/injection, schedule: Q04DX003 (ip), vehicle: saline 94 % of control | dose: 400.0 mg/kg/injection, schedule: Q04DX003 (ip), vehicle: saline 107 % of control

C=CCOc1cc2c(cc1C(C)c1ccc(OCC)c(C)c1)OCO2 (stereo not given)
inactive: [1] 106 % of control | [2] 103 % of control | [3] 106 % of control

CC(=O)c1nn(-c2ccccc2)c(=Nc2ccccc2)cc1C
inactive: [1] 100 % of control | [2] 101 % of control | [3] 98 % of control

CC(C)O[Si](OC(C)C)(OC(C)C)OC(C)C
inactive: [4] 101 % of control | [5] 105 % of control | [6] 105 % of control

COC(=O)C(CC=C(C)C)(CC=C(C)C)C(C)=O
inactive: dose: 100.0 mg/kg/injection, schedule: Q04DX002 (ip), vehicle: saline 104 % of control | dose: 200.0 mg/kg/injection, schedule: Q04DX002 (ip), vehicle: saline 100 % of control | dose: 400.0 mg/kg/injection, schedule: Q04DX002 (ip), vehicle: saline 113 % of control

CN1C(=O)C(=O)N2c3ccc(Cl)cc3C3(c4ccccc4)N=CC12O3 (stereo not given)
inactive: dose: 100.0 mg/kg/injection, schedule: Q04DX003 (ip), vehicle: Klucel (hydroxypropylcellulose) (HPC) 109 % of control | dose: 200.0 mg/kg/injection, schedule: Q04DX003 (ip), vehicle: Klucel (hydroxypropylcellulose) (HPC) 112 % of control | dose: 400.0 mg/kg/injection, schedule: Q04DX003 (ip), vehicle: Klucel (hydroxypropylcellulose) (HPC) 113 % of control

COCCOc1cccc2c1C(=O)c1ccccc1C2=O
inactive: [1] 102 % of control | [2] 91 % of control

CCN1C(=O)C2C3C=CC(C2C1=O)C1C2C(=O)N(CC)C(=O)C2C31 (stereo not given)
inactive: dose: 100.0 mg/kg/injection, schedule: Q01DX001 (ip), vehicle: suspension in saline 99 % of control | dose: 200.0 mg/kg/injection, schedule: Q01DX001 (ip), vehicle: suspension in saline 96 % of control | dose: 400.0 mg/kg/injection, schedule: Q01DX001 (ip), vehicle: suspension in saline 100 % of control

Nc1nc(=S)ss1
inactive: dose: 12.5 mg/kg/injection, schedule: Q01DX009 (ip), vehicle: Klucel (hydroxypropylcellulose) (HPC) 116 % of control and 98 % of control | dose: 25.0 mg/kg/injection, schedule: Q01DX009 (ip), vehicle: Klucel (hydroxypropylcellulose) (HPC) 107 % of control and 111 % of control | [4] 109 % of control and 119 % of control | [5] 109 % of control

O=C(O)c1cccc2c1C(=O)c1cccc3snc-2c13
inactive: [7] 101 % of control | [8] 99 % of control | [9] 109 % of control

C#CC1CCC(NC(=O)NCCCCCCNC(=O)NC2CCC(C#C)CC2)CC1 (stereo not given)
inactive: [7] 90 % of control | [8] 94 % of control | [9] 86 % of control

CC(C)(C)c1ccc(C(=O)Nc2ccc(S(N)(=O)=O)cc2)cc1
inactive: [4] 100 % of control | [5] 100 % of control | [6] 101 % of control

O=C1C=CC(=O)C2=C1CCOC2c1ccccc1 (stereo not given)
inactive: [1] 91 % of control
